{
  "source": "patent US20230015532A1",
  "about": "“PHARMACEUTICAL COMPOSITION, FOR PREVENTING OR TREATING FIBROSIS, COMPRISING PHEOPHORBIDE COMPOUND AS ACTIVE INGREDIENT” (PAEAN BIOTECHNOLOGY INC., priority 2019, published 2023)",
  "format_in_all_cases": "cell-based, human",
  "key": {"[1]": {"test_system": "α-SMA, collagen 1A and fibronectin in CCD8-Lu cells", "assay": "Comparison of anti-fibrotic activity by Western blotting (Experimental Example 4.2)", "conditions": "6 hours after 5 ng/ml TGF-β, 18 hours", "method": "A cell-based analysis experiment was performed to analyze the anti-fibrotic activity of pheophorbide a in comparison with nintedanib and pirfenidone, which were previously approved as a therapeutic agent for pulmonary fibrosis, using Western blotting assay.\n(§1) CCD8-Lu cells, which are human lung-derived fibroblasts, were cultured in the DMEM medium containing 10% FBS. About 2×10^5 cells were then inoculated into a 6 well plate, cultured for 24 hours, and subjected to the deficient condition in the DMEM medium from which FBS was removed for about 24 hours.\n24 hours later, following the treatment with TGF-β at a concentration of 5 ng/ml, fibrosis of cells was induced for 6 hours. Then, the cells were treated with pheophorbide a obtained in Preparation Example 2 or the therapeutic agent for pulmonary fibrosis and further cultured for 18 hours. Then, the negative control group was treated with nothing, the positive control group was treated with TGF-β alone at a concentration of 5 ng/ml, and the experimental groups were treated with TGF-β at a concentration of 5 ng/ml and 6 hours later, with pheophorbide a at a concentration of […] or 5 μM, nintedanib at a concentration of 1 μM, and pirfenidone at a concentration of 1 mM, respectively.\nAfter 18 hours, the culture medium was removed and the cells were washed twice by adding a PBS buffer solution, and 100 μl of RIPA buffer solution (150 mM NaCl, 1% NP-40, 0.5% Deoxycholic acid, 0.1% SDS, 50 mM Tris pH 7.5) containing a protease inhibitor was added thereto directly. 10 minutes later, the cells were recovered using a scraper and transferred to a microtube and centrifuged at about 12,000×g for 10 minutes.\nThe separated supernatant was obtained and transferred to a new microtube and then the protein was quantified using a bicinchoninic acid assay (BCA assay) protein quantitative kit. Each sample with the same amount of protein was subjected to electrophoresis, and then Western blotting was performed. […]"}, "[2]": {"test_system": "α-SMA, CTGF and NOX4 genes in CCD8-Lu cells", "assay": "Comparison of anti-fibrotic activity by quantitative real-time PCR (Experimental Example 4.1)", "conditions": "6 hours after 5 ng/ml TGF-β, 18 hours, qRT-PCR", "method": "A cell-based analysis experiment was performed to analyze the anti-fibrotic activity of pheophorbide a obtained in Preparation Example 2 in comparison with nintedanib and pirfenidone, which were previously approved as a therapeutic agent for pulmonary fibrosis, using quantitative real-time polymerase chain reaction.\nas §1\n24 hours later, following the treatment with TGF-β at a concentration of 5 ng/ml, fibrosis of cells was induced for 6 hours. After 6 hours, the cells were treated with pheophorbide a obtained in Preparation Example 2 or the therapeutic agent for pulmonary fibrosis and further cultured for 18 hours. […]\nThe supernatant was separated, added with the same volume of isopropyl alcohol and centrifuged at 12,000×g for 10 minutes. […] After drying, about 50 μl of RNAase-free purified distilled water was added thereto, and the quantity and purity of the obtained RNA was measured using a spectrophotometer. […]\nAfter the cDNA synthesis reaction was completed, the reverse transcriptase was inactivated by heating at 72° C. for 5 minutes, and then RNase H was added to remove the […] RNA and obtain the final cDNA. Whether the expression of the alpha-smooth muscle actin gene, which is a characteristic gene of myofibroblasts, the CCN2 (or CTGF) gene, which is a characteristic gene for fibrosis, fibronectin, which is a characteristics gene for fibrosis, and the NOX4 (NADPH oxidase 4) gene known as a major regulator of the amount of reactive oxygen species was changed was observed through quantitative real-time polymerase chain reaction. The GAPDH gene was quantified together to correct differences in expression."}, "[3]": {"test_system": "phosphorylated Smad3 and phosphorylated ERK in CCD8-Lu cells", "assay": "Western blotting of phosphorylated proteins of TGF-β signaling (Experimental Example 5)", "conditions": "1 μM, 6 hours after 5 ng/ml TGF-β", "method": "A cell-based assay experiment was performed using Western blotting assay to determine the effect of pheophorbide a on phosphorylation in the TGF-β signaling pathway. CCD8-Lu cells, which are human lung-derived fibroblasts, were cultured in the DMEM medium containing 10% FBS. About 2×10^5 cells were then inoculated into a 6 well plate, cultured for 24 hours, and subjected to the deficient condition in the DMEM medium from which FBS was removed for about 24 hours. 24 hours later, following the treatment with TGF-β at a concentration of 5 ng/ml, fibrosis of cells was induced for 6 hours. Then, the cells were treated with pheophorbide a obtained in Preparation Example 2 or the therapeutic agent for pulmonary fibrosis and further cultured for 18 hours. Then, the negative control group was treated with nothing, the positive control group was treated with TGF-β alone at a concentration of 5 ng/ml, and the experimental groups were treated with TGF-β at a concentration of 5 ng/ml and 6 hours later, with pheophorbide a at a concentration of 5 μM and nintedanib at a concentration of 1 μM, respectively. […] The separated supernatant was obtained and transferred to a new microtube and then the protein was quantified using a bicinchoninic acid assay (BCA assay) protein quantitative kit. […]"}, "[4]": {"test_system": "collagen 1A in CCD8-Lu cells", "assay": "Comparison of anti-fibrotic activity by immunocytochemistry staining (Experimental Example 4.3)", "conditions": "1 μM; 6 hours after 5 ng/ml TGF-β; fluorescence intensity", "method": "A cell-based analysis experiment was performed to analyze the anti-fibrotic activity of pheophorbide a in comparison with nintedanib and pirfenidone, which were previously approved as a therapeutic agent for pulmonary fibrosis, using immunocytochemistry staining method. CCD8-Lu cells, which are human lung-derived fibroblasts, were cultured in the DMEM medium containing 10% FBS. About 2×10^4 cells were then inoculated into a 24 well plate and cultured for 24 hours, and subjected to the deficient condition in the DMEM medium from which FBS was removed for about 24 hours. After 24 hours, following the treatment with TGF-β at a concentration of 5 ng/ml, fibrosis of cells was induced for 6 hours. After 6 hours, the cells were treated with 2.5 μM or 5 μM of pheophorbide a, 1 μM of nintedanib, or 1 mM of pirfenidone. Immunohistochemistry analysis for each sample was performed as follows. First, the sample was washed twice with a PBS buffer, and then 4% formaldehyde was added to fix for 1 hour, and anti-collagen 1A was used as a primary antibody and Alexa Fluor 488 was used as a secondary antibody. The nuclei were stained using DAPI (4,6-diamidino-2-phenylindole) and the difference in the intensity of fluorescence was analyzed using a fluorescence microscope."}},
  "data": [
    {"molecule": "COC(=O)c1ccc2c(c1)NC(=O)/C2=C(\\Nc1ccc(N(C)C(=O)CN2CCN(C)CC2)cc1)c1ccccc1", "note": "[nintedanib, reference compound]", "values": [
      {"measurement": "expression of α-SMA, collagen 1A, and fibronectin induced by TGF-β", "setting": "[1]; 1 μM", "value": "weakly or hardly inhibited"},
      {"measurement": "expression of α-SMA, CTGF and NOX4 genes induced by TGF-β", "setting": "[2]; 1 μM", "value": "weakly or hardly inhibited"},
      {"measurement": "expression of phosphorylated Smad3 and phosphorylated ERK induced by TGF-β", "setting": "[3]", "value": "hardly inhibited"},
      {"measurement": "expression of the collagen 1A protein induced by TGF-β", "setting": "[4]", "value": "weakly inhibited"}
    ]},
    {"molecule": "Cc1ccc(=O)n(-c2ccccc2)c1", "note": "[pirfenidone]", "values": [
      {"measurement": "expression of α-SMA, collagen 1A, and fibronectin induced by TGF-β", "setting": "[1]; 1 mM", "value": "weakly or hardly inhibited"},
      {"measurement": "expression of α-SMA, CTGF and NOX4 genes induced by TGF-β", "setting": "[2]; 1 mM", "value": "weakly or hardly inhibited"}
    ]}
  ]
}
